The values below are quoted from earlier work in patent US20230157281A1, “COMPOSITIONS AND METHODS FOR REPELLING ANIMALS FROM AN OBJECT” (Texas Tech University System, priority 2020, published 2023).

Read-outs that look alike come from different tables or passages of the source.

The test system of data set [1] is cats. The conditions noted are these: preliminary data from another study; dosage not detailed.
The subject of data set [2] is cats.

On to `CC(C)(S)CCO` [MMB, 3-Mercapto-3-Methyl Butanol], for which the “interest shown by male and female cats” value in the data set on cats [1] is listed as “showed interests”. The use of litter box entry in the data set on cats [2] (added to the litter at 50 μg/kg of litter) is reported as “did not alter the use of litterbox”; with cats [2] (substance used in litter, result in words) it was “did not increase the use of litter box”.
In the case of `CC(C)(CCO)SC[C@H](N)C(=O)O` [felinine], the “use of litter box” value in the data set on cats [2] (substance used in litter, result in words, listed as I-felinine) is “attract cats to eliminate in the litter box”.
